Measurements as given in publication PMC12175177 (Frontiers in Pharmacology, 2025).

System: SARS-CoV-2 A2.5 variant
Assay: Pre- and post-exposure assay, A2.5 variant in Vero E6 cells
Assay type: cell-based

| SMILES | antiviral effect, treatment 1 hour post-infection, A2.5 | effect on viral replication, treatment 1 hour pre-infection, A2.5 |
| --- | --- | --- |
| COc1cc(NC(C)CCCN)c2ncccc2c1 (stereo not shown) [Primaquine Phosphate (PQ), Primaquine Phosphate] | dose-dependent antiviral effect | did not influence the viral replication |
| CCN(CC)CCCC(C)Nc1ccnc2cc(Cl)ccc12 (stereo not shown) [Chloroquine diphosphate (CQ), Chloroquine diphosphate] | dose-dependent antiviral effect | did not influence the viral replication |
